Converted amounts (≈) assume the structure as drawn.
Assays:
[1] = molecular target: T1, P. aeruginosa PBP3 (Pseudomonas aeruginosa, UniProt G3XD46); assay: Bocillin-FL fluorescence polarization competition binding assay, P. aeruginosa PBP3; conditions: fluorescence polarization competition binding assay using Bocillin-FL
T1 construct: made in house
Method in brief: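 Inhibitor competition with Bocillin-FL for P. aeruginosa PBP3 was followed by fluorescence polarization on a Cytation3 (BioTek) reader, using g-factor 0.96, 490 nm excitation and 520 nm emission. The enzyme was at 0.75 μM and the probe at 0.1 μM in Hepes/NaCl/glycerol buffer, 80 μl per well. FP was recorded immediately after probe addition for up to 60 minutes. Potency was expressed as EC50, the concentration that reduces bound probe by 50%.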

[2] = system: N. gonorrhoeae ATCC 49226; assay: Liquid broth MIC in Fastidious broth; type: cell-based; conditions: Neisseria gonorrhoeae, ATCC49226; N. gonorrhoeae strain ATCC 49226; Fastidious broth; read-out: Minimum Inhibitory Concentration, N. gonorrhoeae ATCC 49226
Method in brief: (§1)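 Colonies were swabbed from chocolate agar after 24 h growth and standardised by optical density at 600 nm. Compounds were serially diluted twofold in Fastidious broth, and bacteria added to give 5×10^5 CFU/mL. After about 24 h at 36 °C in 5% CO2, the lowest concentration allowing under 10% growth was taken as MIC.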

[3] = system: N. gonorrhoeae FA1090; assay: Liquid broth MIC in Fastidious broth; type: cell-based; conditions: Neisseria gonorrhoeae; N. gonorrhoeae strain FA1090; Fastidious broth; read-out: Minimum Inhibitory Concentration, N. gonorrhoeae FA1090
Method in brief: as §1

[4] = system: N. gonorrhoeae H041; assay: Liquid broth MIC in Fastidious broth; type: cell-based; conditions: Neisseria gonorrhoeae, H041, read-out: Minimum Inhibitory Concentration, N. gonorrhoeae H041
Method in brief: (§2)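 Strains bearing mosaic PBP2 grown 24 h on chocolate agar (36° C, 5% CO2), suspended in saline and added to 2-fold compound dilutions in Fastidious broth at 5×10^5 CFU/mL. After ~24 hours at 36° C with 5% CO2, MIC taken visually as lowest well with <10% growth relative to full growth.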

[5] = system: N. gonorrhoeae WHO G; assay: Liquid broth MIC in Fastidious broth; type: cell-based; conditions: Neisseria gonorrhoeae; N. gonorrhoeae strain WHO G; Fastidious broth; read-out: Minimum Inhibitory Concentration, N. gonorrhoeae WHO G
Method in brief: as §1

[6] = system: N. gonorrhoeae WHO K; assay: Liquid broth MIC in Fastidious broth; type: cell-based; conditions: Neisseria gonorrhoeae, read-out: Minimum Inhibitory Concentration, N. gonorrhoeae WHO K
Method in brief: as §2

[7] = system: N. gonorrhoeae WHO L; assay: Liquid broth MIC in Fastidious broth; type: cell-based; conditions: Neisseria gonorrhoeae; N. gonorrhoeae strain WHO L; Fastidious broth; read-out: Minimum Inhibitory Concentration, N. gonorrhoeae WHO L
Method in brief: as §1

[8] = system: N. gonorrhoeae WHO Q; assay: Liquid broth MIC in Fastidious broth; type: cell-based; conditions: Neisseria gonorrhoeae, read-out: Minimum Inhibitory Concentration, N. gonorrhoeae WHO Q
Method in brief: as §2

[9] = system: N. gonorrhoeae WHO Z; assay: Liquid broth MIC in Fastidious broth; type: cell-based; conditions: Neisseria gonorrhoeae, read-out: Minimum Inhibitory Concentration, N. gonorrhoeae WHO Z
Method in brief: as §2

T1 sequence (G3XD46 whole entry): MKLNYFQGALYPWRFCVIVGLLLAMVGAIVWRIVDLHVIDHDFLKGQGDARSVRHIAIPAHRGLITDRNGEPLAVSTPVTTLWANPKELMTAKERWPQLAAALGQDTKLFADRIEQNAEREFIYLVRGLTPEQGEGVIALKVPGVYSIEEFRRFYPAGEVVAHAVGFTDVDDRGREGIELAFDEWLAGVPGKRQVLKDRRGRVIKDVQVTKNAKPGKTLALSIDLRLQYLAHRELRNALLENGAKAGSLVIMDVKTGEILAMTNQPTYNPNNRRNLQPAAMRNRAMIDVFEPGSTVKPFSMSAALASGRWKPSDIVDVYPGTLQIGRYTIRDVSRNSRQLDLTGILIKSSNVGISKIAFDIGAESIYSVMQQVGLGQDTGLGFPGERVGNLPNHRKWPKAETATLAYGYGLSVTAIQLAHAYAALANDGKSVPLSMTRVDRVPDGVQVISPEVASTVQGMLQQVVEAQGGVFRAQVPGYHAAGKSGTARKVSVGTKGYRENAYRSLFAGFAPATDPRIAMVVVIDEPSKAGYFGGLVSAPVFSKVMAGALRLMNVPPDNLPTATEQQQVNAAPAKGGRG

SMILES | P. aeruginosa PBP3 Potency [1] | MIC [2] | MIC [3] | MIC [4] | MIC [5] | MIC [6] | MIC [7] | MIC [8] | MIC [9]
CCN1CCN(C(=O)NC(C(=O)N[C@H]2Cc3cccc(C(=O)O)c3OB2O)c2cc(Cl)c(O)cc2F)C(=O)C1=O (stereo partly drawn) [Example 101, (3R)-3-(2-(5-chloro-2-fluoro-4-hydroxyphenyl)-2-(4-ethyl-2,3-dioxopiperazine-1-carboxamido)acetamido)-2-hydroxy-3,4-dihydro-2H-benzo[e][1,2]oxaborinine-8-carboxylic acid] | D (D represents a potency <10 μM) | 4 to 8 µg/mL (≈ 6.94 to 13.9 µM) | 0.25 to 0.5 µg/mL (≈ 0.433 to 0.867 µM) | 16 to 32 µg/mL (≈ 27.7 to 55.5 µM) | 1 to 2 µg/mL (≈ 1.73 to 3.47 µM) | 16 to 32 µg/mL (≈ 27.7 to 55.5 µM) | 16 to 32 µg/mL (≈ 27.7 to 55.5 µM) | 16 to 32 µg/mL (≈ 27.7 to 55.5 µM) | 16 to 32 µg/mL (≈ 27.7 to 55.5 µM)
C[C@@H](O)[C@@H](NC(=O)N1CCN(CCNC(=O)c2c(F)cc(O)c(O)c2Cl)C(=O)C1=O)C(=O)N[C@H]1Cc2ccc(F)c(C(=O)O)c2OB1O [Example 102, (R)-3-((2R,3R)-2-(4-(2-(2-chloro-6-fluoro-3,4-dihydroxybenzamido)ethyl)-2,3-dioxopiperazine-1-carboxamido)-3-hydroxybutanamido)-7-fluoro-2-hydroxy-3,4-dihydro-2H-benzo[e][1,2]oxaborinine-8-carboxylic acid] | D (D represents a potency <10 μM) | > 64 µg/mL | 16 to 32 µg/mL (≈ 22.9 to 45.9 µM) | > 64 µg/mL | 16 to 32 µg/mL (≈ 22.9 to 45.9 µM) | > 64 µg/mL | > 64 µg/mL | > 64 µg/mL | > 64 µg/mL
CCN1CCN(C(=O)NC(C(=O)N[C@H]2Cc3cccc(C(=O)O)c3OB2O)c2cc(F)c(O)cc2Cl)C(=O)C1=O (stereo partly drawn) [Example 103, (3R)-3-(2-(2-chloro-5-fluoro-4-hydroxyphenyl)-2-(4-ethyl-2,3-dioxopiperazine-1-carboxamido)acetamido)-2-hydroxy-3,4-dihydro-2H-benzo[e][1,2]oxaborinine-8-carboxylic acid] | D (D represents a potency <10 μM) | 16 to 32 µg/mL (≈ 27.7 to 55.5 µM) | 0.25 to 0.5 µg/mL (≈ 0.433 to 0.867 µM) | 16 to 32 µg/mL (≈ 27.7 to 55.5 µM) | 1 to 2 µg/mL (≈ 1.73 to 3.47 µM) | 16 to 32 µg/mL (≈ 27.7 to 55.5 µM) | > 64 µg/mL | 16 to 32 µg/mL (≈ 27.7 to 55.5 µM) | 16 to 32 µg/mL (≈ 27.7 to 55.5 µM)
CCN1CCN(C(=O)NC(C(=O)N[C@H]2Cc3cccc(C(=O)O)c3OB2O)c2cc(F)c(O)cc2F)C(=O)C1=O (stereo partly drawn) [Example 104, (3R)-3-(2-(2,5-difluoro-4-hydroxyphenyl)-2-(4-ethyl-2,3-dioxopiperazine-1-carboxamido)acetamido)-2-hydroxy-3,4-dihydro-2H-benzo[e][1,2]oxaborinine-8-carboxylic acid] | D (D represents a potency <10 μM) | 4 to 8 µg/mL (≈ 7.14 to 14.3 µM) | 0.25 to 0.5 µg/mL (≈ 0.446 to 0.892 µM) | 16 to 32 µg/mL (≈ 28.6 to 57.1 µM) | 1 to 2 µg/mL (≈ 1.78 to 3.57 µM) | 16 to 32 µg/mL (≈ 28.6 to 57.1 µM) | 16 to 32 µg/mL (≈ 28.6 to 57.1 µM) | 4 to 8 µg/mL (≈ 7.14 to 14.3 µM) | 4 to 8 µg/mL (≈ 7.14 to 14.3 µM)
CCN1CCN(C(=O)NC(C(=O)N[C@H]2Cc3cccc(C(=O)O)c3OB2O)c2c(F)cc(O)cc2F)C(=O)C1=O (stereo partly drawn) [Example 105, (3R)-3-(2-(2,6-difluoro-4-hydroxyphenyl)-2-(4-ethyl-2,3-dioxopiperazine-1-carboxamido)acetamido)-2-hydroxy-3,4-dihydro-2H-benzo[e][1,2]oxaborinine-8-carboxylic acid] | D (D represents a potency <10 μM) | 4 to 8 µg/mL (≈ 7.14 to 14.3 µM) | < 0.125 µg/mL | 16 to 32 µg/mL (≈ 28.6 to 57.1 µM) | 0.25 to 0.5 µg/mL (≈ 0.446 to 0.892 µM) | 16 to 32 µg/mL (≈ 28.6 to 57.1 µM) | 16 to 32 µg/mL (≈ 28.6 to 57.1 µM) | 4 to 8 µg/mL (≈ 7.14 to 14.3 µM) | 4 to 8 µg/mL (≈ 7.14 to 14.3 µM)
CCN1CCN(C(=O)NC(C(=O)N[C@H]2Cc3cccc(C(=O)O)c3OB2O)c2c(F)c(O)cc(O)c2F)C(=O)C1=O (stereo partly drawn) [Example 106, (3R)-3-(2-(2,6-difluoro-3,5-dihydroxyphenyl)-2-(4-ethyl-2,3-dioxopiperazine-1-carboxamido)acetamido)-2-hydroxy-3,4-dihydro-2H-benzo[e][1,2]oxaborinine-8-carboxylic acid] | D (D represents a potency <10 μM) | > 64 µg/mL | 16 to 32 µg/mL (≈ 27.8 to 55.5 µM) | > 64 µg/mL | 16 to 32 µg/mL (≈ 27.8 to 55.5 µM) | > 64 µg/mL | > 64 µg/mL | > 64 µg/mL | > 64 µg/mL
CCN1CCN(C(=O)NC(C(=O)N[C@H]2Cc3cccc(C(=O)O)c3OB2O)c2cccc(CNS(N)(=O)=O)c2)C(=O)C1=O (stereo partly drawn) [Example 107, (3R)-3-(2-(4-ethyl-2,3-dioxopiperazine-1-carboxamido)-2-(3-((sulfamoylamino)methyl)phenyl)acetamido)-2-hydroxy-3,4-dihydro-2H-benzo[e][1,2]oxaborinine-8-carboxylic acid] | D (D represents a potency <10 μM) | > 64 µg/mL | 1 to 2 µg/mL (≈ 1.62 to 3.24 µM) | > 64 µg/mL | 16 to 32 µg/mL (≈ 26 to 51.9 µM) | > 64 µg/mL | > 64 µg/mL | > 64 µg/mL | > 64 µg/mL
CCN1CCN(C(=O)NC(C(=O)N[C@H]2Cc3cccc(C(=O)O)c3OB2O)c2cccc(CN)c2)C(=O)C1=O (stereo partly drawn) [Example 108, (3R)-3-(2-(3-(aminomethyl)phenyl)-2-(4-ethyl-2,3-dioxopiperazine-1-carboxamido)acetamido)-2-hydroxy-3,4-dihydro-2H-benzo[e][1,2]oxaborinine-8-carboxylic acid] | B (B represents a potency between 30 μM and 500 μM inclusive) | 16 to 32 µg/mL (≈ 29.8 to 59.6 µM) | 1 to 2 µg/mL (≈ 1.86 to 3.72 µM) | > 64 µg/mL | 4 to 8 µg/mL (≈ 7.44 to 14.9 µM) | > 64 µg/mL | > 64 µg/mL | > 64 µg/mL | > 64 µg/mL
NCCN1CCN(C(=O)NC(C(=O)N[C@H]2Cc3cccc(C(=O)O)c3OB2O)c2cc(F)c(O)cc2Cl)C(=O)C1=O (stereo partly drawn) [Example 109, (3R)-3-(2-(4-(2-aminoethyl)-2,3-dioxopiperazine-1-carboxamido)-2-(2-chloro-5-fluoro-4-hydroxyphenyl)acetamido)-2-hydroxy-3,4-dihydro-2H-benzo[e][1,2]oxaborinine-8-carboxylic acid] | D (D represents a potency <10 μM) | > 64 µg/mL | 4 to 8 µg/mL (≈ 6.76 to 13.5 µM) | > 64 µg/mL | > 64 µg/mL | > 64 µg/mL | > 64 µg/mL | > 64 µg/mL | > 64 µg/mL
CCN1CCN(C(=O)NC(C(=O)N[C@H]2Cc3cccc(C(=O)O)c3OB2O)c2cncc(O)c2)C(=O)C1=O (stereo partly drawn) [Example 112, (3R)-3-(2-(4-ethyl-2,3-dioxopiperazine-1-carboxamido)-2-(5-hydroxypyridin-3-yl)acetamido)-2-hydroxy-3,4-dihydro-2H-benzo[e][1,2]oxaborinine-8-carboxylic acid] | D (D represents a potency <10 μM) | 4 to 8 µg/mL (≈ 7.61 to 15.2 µM) | 1 to 2 µg/mL (≈ 1.9 to 3.81 µM) | > 64 µg/mL | 4 to 8 µg/mL (≈ 7.61 to 15.2 µM) | > 64 µg/mL | > 64 µg/mL | 16 to 32 µg/mL (≈ 30.5 to 60.9 µM) | 16 to 32 µg/mL (≈ 30.5 to 60.9 µM)
